Tests used:
[1] = tested on: Arabidopsis thaliana; test: Root growth-promoting activity test (Example 9); assay type: in vivo; conditions: main root length vs control section, 22° C., 10 days
Description: (§1) Enshi standard medium having the following composition (see Table 10) was prepared. To cluster tubes was dispensed each 4 μl of a solution of a chemical substance in DMSO to a final concentration of 0.001 ppm to 10 ppm, and then, was dispensed each 600 μl of the sterilized Enshi standard medium. Then the resulting solution was well mixed. In each of the cluster tubes, 10-20 seeds of Arabidopsis thaliana were sown, and cultured at 22° C. for 10 days in the light. Then, the length of main roots (average main roots) generated from the seeds of Arabidopsis thaliana was measured. An average of eight repeats was determined, and a root growth rate was determined according to the following equation.
(§2) Root growth rate (%)=(Average main root length in chemical substance-treated section)/(Average main root length in control section)×100

[2] = biological target: T1, cytokinin receptor CRE1 (Arabidopsis thaliana, UniProt Q9C5U0, S567G/T1018A); test: Inhibition of intracellular signaling from plant-derived cytokinin receptor, growth of transformed yeast cell TM182-CRE1; assay type: cell-based; conditions: trans-zeatin 0.6 ppm, chemical substance 2 ppm; for Relative growth rate (%) in test section of test substance to control section, Transformed cell TM182-CRE1: 30° C., 24 hours, turbidity OD 600; for Activity (%) of test substance for inhibiting intracellular signaling from plant-derived cytokinin receptor of cell: = 100 − relative growth rate of TM182-CRE1
T1 construct: expressed in transfected cells; host or cells: Saccharomyces cerevisiae TM182 (sln1Δ) transformed with p415CYC-CRE1
T1 sequence (Q9C5U0 24-1080 S567G/T1018A): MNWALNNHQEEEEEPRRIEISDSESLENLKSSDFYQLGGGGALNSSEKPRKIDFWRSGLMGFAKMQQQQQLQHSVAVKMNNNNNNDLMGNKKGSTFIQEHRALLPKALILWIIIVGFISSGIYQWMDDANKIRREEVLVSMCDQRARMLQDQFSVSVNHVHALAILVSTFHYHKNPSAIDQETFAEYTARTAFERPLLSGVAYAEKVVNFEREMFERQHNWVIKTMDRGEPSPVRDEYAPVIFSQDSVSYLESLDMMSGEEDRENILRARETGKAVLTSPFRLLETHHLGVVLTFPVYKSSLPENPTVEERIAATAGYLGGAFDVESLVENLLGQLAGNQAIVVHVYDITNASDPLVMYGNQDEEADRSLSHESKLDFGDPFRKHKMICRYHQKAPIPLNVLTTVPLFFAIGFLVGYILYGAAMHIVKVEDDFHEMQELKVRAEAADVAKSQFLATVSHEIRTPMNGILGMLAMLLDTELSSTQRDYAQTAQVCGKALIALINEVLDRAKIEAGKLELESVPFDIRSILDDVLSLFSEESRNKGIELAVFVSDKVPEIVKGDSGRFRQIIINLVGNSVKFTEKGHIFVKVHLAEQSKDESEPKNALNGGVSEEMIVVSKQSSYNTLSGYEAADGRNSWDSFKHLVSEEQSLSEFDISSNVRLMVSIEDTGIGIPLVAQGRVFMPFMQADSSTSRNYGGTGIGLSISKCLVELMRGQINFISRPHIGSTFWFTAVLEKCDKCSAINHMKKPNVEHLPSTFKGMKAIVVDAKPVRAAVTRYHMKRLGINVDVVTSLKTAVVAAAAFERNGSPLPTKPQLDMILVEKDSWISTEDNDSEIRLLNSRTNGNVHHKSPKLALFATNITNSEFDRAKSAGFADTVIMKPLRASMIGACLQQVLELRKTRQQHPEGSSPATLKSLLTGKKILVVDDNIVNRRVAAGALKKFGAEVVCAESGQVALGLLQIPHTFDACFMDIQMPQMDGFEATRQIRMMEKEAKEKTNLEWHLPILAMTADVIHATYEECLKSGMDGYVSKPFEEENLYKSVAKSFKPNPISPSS
Description: (§3) The transformed cell TM182-CRE1 and the transformed cell TM182-p415CYC1 obtained in Example 6 were each inoculated in 10 ml of a DOLU+Gal medium, and preincubated at 30° C. for 18 hours to obtain a preincubation liquid for each of the transformed cells. The preincubation liquid was diluted with a DOLU+Glu medium for the transformed cell TM182-CRE1 or with a DOLU+Gal medium for the transformed cell TM182-p415CYC1 until OD600=0.1 was reached, to obtain a preincubation dilution for each of the transformed cells.
(§4) To each well of a 96-well plate was added 1 μl of a 200 ppm solution of a test substance in dimethyl sulfoxide (DMSO) to prepare an Assay plate. At the same time, as controls, only 1 μl of DMSO was added to a part of wells. An assay plate for the transformed cell TM182-CRE1 and an assay plate for the transformed cell TM182-p415CYC1 were prepared.
(§5) A 10,000 ppm solution of trans-zeatin (cytokinin) in DMSO was 50-fold diluted with a DOLU+Gul medium to 200 ppm. The 200 ppm trans-zeatin solution was added in an amount of 3/1,000 volume to each of the above-described preincubation dilution to prepare each preincubation dilution containing trans-zeatin at 0.6 ppm. The 0.6 ppm preincubation dilution was added in an amount of 100 μl to each wells of the assay plate for each transformed cell. The plates were incubated at 30° C. for 24 hours. Then, turbidity (OD 600) of each well was measured by using a plate reader. The activity of the test substance for inhibiting intracellular signaling from a plant-derived cytokinin receptor of a cell was tested by comparing the measured turbidity with the turbidity of the control well.
(§6) (Relative growth rate in test section to control section) [%]=[(Turbidity in test section)−(Turbidity in blank)]/[(Turbidity in control section)−(Turbidity in blank)]×100 (Activity of inhibiting intracellular signaling from plant-derived cytokinin receptor of cell) [%]=100−(Relative growth rate in test section to control section)
(§7) In all cases, the existing concentration of trans-zeatin was adjusted to 0.6 ppm and the existing concentration of a chemical substance was adjusted to 2 ppm.
(§8) In all cases, the existing concentration of trans-zeatin was adjusted to 0.6 ppm and the existing concentration of a chemical substance was adjusted to 2 […].

[3] = tested on: transformed cell TM182-p415CYC1; test: Control growth test with transformed yeast cell TM182-p415CYC1 (toxicity to yeast); assay type: cell-based; conditions: trans-zeatin 0.6 ppm; chemical substance 2 ppm; 30° C., 24 hours; turbidity OD 600
Description: as §3, §4, §5, §6, §7, §8

[4] = tested on: Arabidopsis thaliana; test: Root growth-promoting activity test (Example 22); assay type: in vivo; conditions: main root length vs control section, 22° C., 10 days
Description: as §1, with “18)” for “10)”
as §2
Enshi standard medium determined having the following composition (Table 18) was prepared. A DMSO solution of a chemical substance was dispensed by 4 μl to cluster tubes to a final concentration of 0.001 ppm to 10 ppm and the sterilized Enshi standard medium was dispensed by 600 μl and then the resulting solution was well mixed. 10-20 seeds of A. thaliana per cluster tube were sown in the cluster tubes. After culture at 22° C. for 10 days in bright light, the length of main roots (average main roots) took from seeds of A. thaliana was measured. An average of eight repeats was determined and the root growth rate was determined.
Root growth rate (%)=(Average main root length of chemical substance-treated section)/(Average main root length of control section)×100

[5] = test final concentration 2.5 ppm (highest root growth rate)
[6] = test final concentration 2.5 ppm (concentration with highest root growth rate)
[7] = test final concentration 1.25 ppm (highest root growth rate)
[8] = test final concentration 1.25 ppm (concentration with highest root growth rate)
[9] = test final concentration 5 ppm (highest root growth rate)
[10] = test final concentration 5 ppm (concentration with highest root growth rate)
[11] = test final concentration 0.625 ppm (highest root growth rate)
[12] = test final concentration 0.625 ppm (concentration with highest root growth rate)

Row | melting point | Compound | Relative growth rate (%) in test section of test substance to control section, Transformed cell TM182-CRE1 [2] | Activity (%) of test substance for inhibiting intracellular signaling from plant-derived cytokinin receptor of cell [2] | Relative growth rate (%) in test section of test substance to control section, Transformed cell TM182-p415CYC1 [3] | other results
1 | 128.9 °C | CC(=O)SCCNc1nc(-c2ccccc2)c2cc(Cl)ccc2n1 [Ic3-14, 2-(2-acetylthioethylamino)-6-chloro-4-phenylquinazoline] | – | – | – | activity at 2.5 ppm ([1]; Arabidopsis thaliana, 240 h, test final concentration 2.5 ppm (concentration with highest root growth rate)): 126%
2 | 165.9 °C | SCCNc1nc(-c2ccccc2)c2cc(Cl)ccc2n1 [Ic3-13, 6-chloro-2-(2-mercaptoethylamino)-4-phenylquinazoline] | – | – | – | activity at 10 ppm ([1]; Arabidopsis thaliana, 240 h, test final concentration 10 ppm (concentration with highest root growth rate)): 140%
3 | – | COC(=O)CCNc1nc(-c2ccccc2)c2cc(Cl)ccc2n1 [Ic3-43] | 0.8% | 99.2% | 122.0% | Root growth-promoting activity (root growth rate) [4, 5]: 137.9%; Root growth-promoting activity (root growth rate) [1, 6]: 137.9%
4 | – | CCOCCCNc1nc(-c2ccccc2)c2cc(Cl)ccc2n1 [Ic3-46] | 1.3% | 98.7% | 92.2% | Root growth-promoting activity (root growth rate) [4, 5]: 121.6%; Root growth-promoting activity (root growth rate) [1, 6]: 121.6%
5 | – | OCCCCCCNc1nc(-c2ccccc2)c2cc(Cl)ccc2n1 [Ic3-11] | 3.9% | 96.1% | 84.6% | Root growth-promoting activity (root growth rate) [4, 7]: 128.2%; Root growth-promoting activity (root growth rate) [1, 8]: 128.2%
6 | 160.3 °C | Clc1cc(Cl)c2nc(Cl)nc(-c3ccccc3)c2c1 [Ia1-12, 2,6,8-trichloro-4-phenylquinazoline] | – | – | – | –
7 | – | CC(=CCNc1nc(-c2ccccc2)c2cc(Cl)ccc2n1)CO [Ic3-18] | 4.0% | 96.0% | 105.3% | Root growth-promoting activity (root growth rate) [4, 5]: 139.5%; Root growth-promoting activity (root growth rate) [1, 6]: 139.5%
8 | 159.2 °C | Clc1ccc2nc(NCCSSCCNc3nc(-c4ccccc4)c4cc(Cl)ccc4n3)nc(-c3ccccc3)c2c1 [Ic3-15, bis[2-(6-chloro-4-phenyl-2-quinazolinyl)aminoethyl]disulfide] | – | – | – | activity at 5 ppm ([1]; Arabidopsis thaliana, 240 h, test final concentration 5 ppm (concentration with highest root growth rate)): 131%
9 | – | Clc1ccc2nc(NCC3CCCO3)nc(-c3ccccc3)c2c1 (stereo not drawn) [Ic3-37] | 3.5% | 96.5% | 114.2% | Root growth-promoting activity (root growth rate) [4, 9]: 138.5%; Root growth-promoting activity (root growth rate) [1, 10]: 138.5%
10 | – | CC(CO)Nc1nc(-c2ccccc2)c2cc(Cl)ccc2n1 (stereo not drawn) [Ic3-44] | 7.0% | 93.0% | 101.4% | Root growth-promoting activity (root growth rate) [4, 7]: 126.5%; Root growth-promoting activity (root growth rate) [1, 8]: 126.5%
11 | – | OCCOCCNc1nc(-c2ccccc2)c2cc(Cl)ccc2n1 [Ic3-40] | 0.7% | 99.3% | 123.4% | Root growth-promoting activity (root growth rate) [4, 11]: 125.8%; Root growth-promoting activity (root growth rate) [1, 12]: 125.8%
12 | 212.7 °C | Nc1nc(-c2ccccc2)c2cc(Cl)cc(Cl)c2n1 [Ic12-4, 2-amino-6,8-dichloro-4-phenylquinazoline] | – | – | – | –
13 | – | COC(=O)CNc1nc(-c2ccccc2)c2cc(Cl)ccc2n1 [Ic3-42] | −0.7% | 100.7% | 111.5% | Root growth-promoting activity (root growth rate) [4, 11]: 128.6%; Root growth-promoting activity (root growth rate) [1, 12]: 128.6%
14 | – | OCCCNc1nc(-c2ccccc2)c2cc(Cl)cc(Cl)c2n1 [Ic12-1] | 2.8% | 97.2% | 106.3% | Root growth-promoting activity (root growth rate) [4, 5]: 184.6%; Root growth-promoting activity (root growth rate) [1, 6]: 184.6%
15 | 154.4 °C | Clc1nc(-c2ccccc2)c2cccc(Cl)c2n1 [Ia1-11, 2,8-dichloro-4-phenylquinazoline] | – | – | – | –
16 | – | C=CCNc1nc(-c2ccccc2)c2cc(Cl)ccc2n1 [Ic3-29] | 1.6% | 98.4% | 92.7% | Root growth-promoting activity (root growth rate) ([4]; test final concentration 10 ppm (highest root growth rate)): 122.4%; Root growth-promoting activity (root growth rate) ([1]; test final concentration 10 ppm (concentration with highest root growth rate)): 122.4%
17 | – | CC(CO)CCNc1nc(-c2ccccc2)c2cc(Cl)ccc2n1 (stereo not drawn) [Ic3-12] | 5.6% | 94.4% | 90.9% | Root growth-promoting activity (root growth rate) [4, 7]: 128.9%; Root growth-promoting activity (root growth rate) [1, 8]: 128.9%
18 | – | OCC(O)CNc1nc(-c2ccccc2)c2cc(Cl)ccc2n1 (stereo not drawn) [Ic3-41] | 8.8% | 91.2% | 123.3% | Root growth-promoting activity (root growth rate) [4, 9]: 134.5%; Root growth-promoting activity (root growth rate) [1, 10]: 134.5%

Source: patent publication US8722580B2, “Agent for inhibiting cytokinin signaling” (Sumitomo Chemical Company, Limited, priority 2006, dated 2014)
